This passage reports IC50 and Ki results from ChEMBL document CHEMBL1909046, “DrugMatrix in vitro pharmacology data”.

The target of assay [1] is 5-hydroxytryptamine receptor 6 (Homo sapiens, UniProt P50406). The class given is cell membranes, HeLa, Membrane. The note with it: for IC50: hela; for pIC50: read-out: IC50; for pKi: read-out: Ki. For all read-outs here: in other assays of this panel Not Active means under 50% inhibition at 10 µM.
Assay [2] is described as follows: DRUGMATRIX: GABAA, Chloride Channel, TBOB radioligand binding (ligand: [3H] TBOB). The format is cell membranes, Rattus norvegicus, Wistar, Cerebral cortex, Membrane. The following applies: Not Active = under 50% inhibition at 10 µM.
The nature of assay [3]: DRUGMATRIX: Glutamate, NMDA, Phencyclidine radioligand binding (ligand: [3H] TCP). The following applies: Not Active = under 50% inhibition at 10 µM. The class given is cell membranes, Rattus norvegicus, Wistar, Cerebral cortex, Membrane.
A further assay concerns the target Melanocortin receptor 3 (Homo sapiens, UniProt P41968). The class given is cell membranes, Membrane. The following applies: hek293. Note: in other assays of this panel Not Active means under 50% inhibition at 10 µM.
The nature of assay [4]: DRUGMATRIX: Potassium Channel [KATP] radioligand binding (ligand: [3H] Glyburide). The class given is cell membranes, Membrane. The note with it: hit-t15, Not Active = under 50% inhibition at 10 µM.
For another assay, the target named is T1, Caspase-1 (Homo sapiens, UniProt P29466).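 Note: Caspase-1 enzyme inhibition assay with a peptide substrate; in other assays of this panel Not Active means under 50% inhibition at 10 µM.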
T1 sequence (P29466 whole entry): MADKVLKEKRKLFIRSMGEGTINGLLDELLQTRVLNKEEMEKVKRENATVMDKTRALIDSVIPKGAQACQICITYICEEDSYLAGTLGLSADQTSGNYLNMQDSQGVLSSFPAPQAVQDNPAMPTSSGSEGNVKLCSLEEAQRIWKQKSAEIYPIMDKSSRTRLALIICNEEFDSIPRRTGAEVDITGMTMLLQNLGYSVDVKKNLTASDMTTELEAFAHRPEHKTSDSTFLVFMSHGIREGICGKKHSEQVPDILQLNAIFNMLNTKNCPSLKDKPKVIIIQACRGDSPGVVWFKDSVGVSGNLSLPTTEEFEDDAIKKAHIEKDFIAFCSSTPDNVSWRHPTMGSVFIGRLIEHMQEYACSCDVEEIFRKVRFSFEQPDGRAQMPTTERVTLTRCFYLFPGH
Further details: species or system Escherichia coli.

pIC50, pKi: −log10 of the molar value.

Sequence of Melanocortin receptor 3 (P41968 whole entry): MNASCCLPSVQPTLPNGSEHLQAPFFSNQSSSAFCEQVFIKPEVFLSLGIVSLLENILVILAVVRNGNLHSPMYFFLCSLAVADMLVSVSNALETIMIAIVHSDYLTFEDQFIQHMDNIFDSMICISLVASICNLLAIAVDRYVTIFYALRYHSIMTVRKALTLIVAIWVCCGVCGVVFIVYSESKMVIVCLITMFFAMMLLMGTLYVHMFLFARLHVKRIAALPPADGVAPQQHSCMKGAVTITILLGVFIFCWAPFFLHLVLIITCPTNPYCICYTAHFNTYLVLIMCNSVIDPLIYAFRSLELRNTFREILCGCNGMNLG
Sequence of 5-hydroxytryptamine receptor 6 (P50406 whole entry): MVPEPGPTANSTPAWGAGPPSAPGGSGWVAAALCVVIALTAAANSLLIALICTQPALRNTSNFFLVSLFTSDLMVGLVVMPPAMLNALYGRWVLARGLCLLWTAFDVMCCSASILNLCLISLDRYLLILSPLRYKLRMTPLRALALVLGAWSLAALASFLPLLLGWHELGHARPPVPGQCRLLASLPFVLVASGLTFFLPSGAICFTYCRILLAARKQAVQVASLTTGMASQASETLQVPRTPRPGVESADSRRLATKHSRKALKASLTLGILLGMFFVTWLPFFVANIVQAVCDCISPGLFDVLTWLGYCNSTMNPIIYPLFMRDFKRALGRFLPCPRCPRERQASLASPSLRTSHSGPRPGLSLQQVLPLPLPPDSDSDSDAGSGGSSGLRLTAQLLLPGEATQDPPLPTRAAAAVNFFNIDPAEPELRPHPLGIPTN

Take `CC(O)(P(=O)(O)O)P(=O)(O)O` [ETIDRONIC ACID]: the IC50 result (in assay [1]; in assay [2]; in assay [3]; against Melanocortin receptor 3; in assay [4]; on Caspase-1) was “Not Active” each time. The Ki entry in assay [2], in assay [3] and in assay [4] was “Not Active” in each case.

With `CC(C)(C(=O)O)c1ccc(C(O)CCCN2CCC(C(O)(c3ccccc3)c3ccccc3)CC2)cc1` (stereo unspecified) [FEXOFENADINE], the IC50 entry (in assay [1]; in assay [2]; in assay [3]; at Melanocortin receptor 3; in assay [4]; on Caspase-1) was “Not Active” in each case. The Ki entry in assay [2], in assay [3] and in assay [4] was “Not Active” in each case.

For the molecule `CN1CCN(c2c(F)cc3c(=O)c(C(=O)O)cn(CCF)c3c2F)CC1` [FLEROXACIN], the IC50 entry (in assay [1]; in assay [2]; in assay [3]; on Melanocortin receptor 3; in assay [4]; against Caspase-1) was “Not Active” in each case. The Ki entry in assay [2], in assay [3] and in assay [4] was “Not Active” each time.

Consider `O=c1[nH]c(=O)n([C@H]2C[C@H](O)[C@@H](CO)O2)cc1F` [FLOXURIDINE], for which the IC50 result (in assay [1]; in assay [2]; in assay [3]; at Melanocortin receptor 3; in assay [4]; against Caspase-1) was “Not Active” each time. Further, the Ki entry in assay [2], in assay [3] and in assay [4] was “Not Active” throughout.

On to `COC(=O)Nc1nc2cc(C(=O)c3ccc(F)cc3)ccc2[nH]1` [FLUBENDAZOLE], for which the IC50 entry (in assay [1]; in assay [2]; in assay [3]; at Melanocortin receptor 3; in assay [4]; against Caspase-1) was “Not Active” in each case. Besides, the Ki entry in assay [2], in assay [3] and in assay [4] was “Not Active” each time.

As to `CC(=O)OCC(=O)[C@@]1(O)CC[C@H]2[C@@H]3CCC4=CC(=O)CC[C@]4(C)[C@@]3(F)[C@@H](O)C[C@@]21C` [FLUDROCORTISONE ACETATE], the IC50 result (in assay [1]; in assay [2]; in assay [3]; against Melanocortin receptor 3; in assay [4]; at Caspase-1) was “Not Active” throughout. The Ki entry in assay [2], in assay [3] and in assay [4] was “Not Active” each time.

Regarding `CCOC(=O)c1ncn2c1CN(C)C(=O)c1cc(F)ccc1-2` [FLUMAZENIL], the IC50 entry (in assay [1]; in assay [2]; in assay [3]; against Melanocortin receptor 3; in assay [4]; against Caspase-1) was “Not Active” throughout. Also, the Ki entry in assay [2], in assay [3] and in assay [4] was “Not Active” throughout.

As to `CC(=O)OCC(=O)[C@@]12OC(C)(C)O[C@@H]1C[C@H]1[C@@H]3C[C@H](F)C4=CC(=O)C=C[C@]4(C)[C@@]3(F)[C@@H](O)C[C@@]12C` [FLUOCINONIDE], the IC50 result (in assay [1]; in assay [2]; in assay [3]; against Melanocortin receptor 3; in assay [4]; at Caspase-1) was “Not Active” throughout. The Ki entry in assay [2], in assay [3] and in assay [4] was “Not Active” in each case.

Regarding `O=C(O)P(=O)(O)O` [FOSCARNET], the IC50 result (in assay [1]; in assay [2]; in assay [3]; on Melanocortin receptor 3; in assay [4]; against Caspase-1) was “Not Active” each time. Moreover, the Ki entry in assay [2], in assay [3] and in assay [4] was “Not Active” throughout.

Take `Cc1ccc(C)c(OCCCC(C)(C)C(=O)O)c1` [GEMFIBROZIL]: the IC50 result (in assay [1]; in assay [2]; in assay [3]; against Melanocortin receptor 3; in assay [4]; on Caspase-1) was “Not Active” in each case. Besides, the Ki entry in assay [2], in assay [3] and in assay [4] was “Not Active” each time.

Turning to `O=c1c(-c2ccc(O)cc2)coc2cc(O)cc(O)c12` [GENISTEIN], the IC50 entry (in assay [1]; in assay [2]; in assay [3]; on Melanocortin receptor 3; in assay [4]; against Caspase-1) was “Not Active” throughout. Besides, the Ki result in assay [2], in assay [3] and in assay [4] was “Not Active” throughout.

In general, pIC50 refers to −log10 of the IC50, conventionally taken in molar units. By pKi is commonly meant the Ki on a negative log10 scale, so that one unit is a factor of ten. As to `CCC1=C(C)CN(C(=O)NCCc2ccc(S(=O)(=O)NC(=O)N[C@H]3CC[C@H](C)CC3)cc2)C1=O` [GLIMEPIRIDE], the IC50 result (in assay [1]; in assay [2]; in assay [3]; on Melanocortin receptor 3; against Caspase-1) was “Not Active” each time. Also, the Ki result in assay [2] and in assay [3] was “Not Active” each time. In addition, in assay [4] (read-out: IC50), the pIC50 is 7.00. Besides, in assay [4] (read-out: Ki), the negative logarithm of the Ki (pKi) is 7.96.

Regarding `Nc1cc(-c2ccncc2)c[nH]c1=O` [INAMRINONE], the IC50 entry (in assay [1]; in assay [2]; in assay [3]; against Melanocortin receptor 3; in assay [4]; at Caspase-1) was “Not Active” each time. The Ki result in assay [2], in assay [3] and in assay [4] was “Not Active” throughout.

As for `CCCCC1=NC2(CCCC2)C(=O)N1Cc1ccc(-c2ccccc2-c2nnn[nH]2)cc1` [IRBESARTAN], the IC50 result (in assay [1]; in assay [2]; in assay [3]; on Melanocortin receptor 3; in assay [4]; at Caspase-1) was “Not Active” throughout. Moreover, the Ki result in assay [2], in assay [3] and in assay [4] was “Not Active” each time.

Turning to `CN1CCC(=C2c3ccccc3CC(=O)c3sccc32)CC1` [KETOTIFEN], the pIC50 in assay [1] is 5.94. Moreover, the negative-log Ki (pKi) in assay [1] was 6.28. In addition, the IC50 entry (in assay [2]; in assay [3]; at Melanocortin receptor 3; in assay [4]; against Caspase-1) was “Not Active” throughout. Further, the Ki result in assay [2], in assay [3] and in assay [4] was “Not Active” each time.

For `N[C@@H](Cn1ccc(=O)c(O)c1)C(=O)O` [L-MIMOSINE], the IC50 entry (in assay [1]; in assay [2]; in assay [3]; on Melanocortin receptor 3; in assay [4]; against Caspase-1) was “Not Active” each time. For the same molecule, the Ki result in assay [2], in assay [3] and in assay [4] was “Not Active” each time.

Consider `C[N+](C)(C)C[C@H](O)CC(=O)[O-]` [LEVOCARNITINE], for which the IC50 entry (in assay [1]; in assay [2]; in assay [3]; on Melanocortin receptor 3; in assay [4]; against Caspase-1) was “Not Active” each time. The Ki entry in assay [2], in assay [3] and in assay [4] was “Not Active” in each case.

For the molecule `C[C@H]1COc2c(N3CCN(C)CC3)c(F)cc3c(=O)c(C(=O)O)cn1c23.C[C@H]1COc2c(N3CCN(C)CC3)c(F)cc3c(=O)c(C(=O)O)cn1c23.O` [LEVOFLOXACIN], the IC50 result (in assay [1]; in assay [2]; in assay [3]; on Melanocortin receptor 3; in assay [4]; against Caspase-1) was “Not Active” each time. Further, the Ki result in assay [2], in assay [3] and in assay [4] was “Not Active” in each case.

`CN1CCCC(CN2c3ccccc3Sc3ccccc32)C1` (stereo unspecified) [MEPAZINE]: the pIC50 in assay [1] is 5.74. Besides, the negative logarithm of the Ki (pKi) in assay [1] was 6.07. Besides, the IC50 result (in assay [2]; in assay [3]; against Melanocortin receptor 3; in assay [4]; at Caspase-1) was “Not Active” throughout. Also, the Ki result in assay [2], in assay [3] and in assay [4] was “Not Active” each time.

Turning to `Cc1cccc(C)c1NC(=O)C1CCCCN1C` (stereo unspecified) [MEPIVACAINE], the IC50 entry (in assay [1]; in assay [2]; in assay [3]; against Melanocortin receptor 3; in assay [4]; at Caspase-1) was “Not Active” in each case. Also, the Ki entry in assay [2], in assay [3] and in assay [4] was “Not Active” in each case.

On to `CN(C)C(=N)NC(=N)N` [METFORMIN], for which the IC50 result (in assay [1]; in assay [2]; in assay [3]; against Melanocortin receptor 3; in assay [4]; at Caspase-1) was “Not Active” each time. Also, the Ki entry in assay [2], in assay [3] and in assay [4] was “Not Active” throughout.
